Laboratory results: patent US10941157B2, “Pesticidal compositions and uses thereof” (Gilead Apollo, LLC, priority 2015, dated 2021)
≈ marks a conversion by molar mass, not a printed value.

Key:
Format in all cases: cell-based
[1] = test system: Collectotrichum graminicola (Cg); assay: In vitro pathogen growth inhibition assay, Cg; settings: 48 h, ≥90% inhibition; 48 hours vs 2% DMSO control; read-out: Compound Concentration (ppm) sufficient for ≥90% inhibition of growth, Cg
How it was run: (§1)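 Value reported is the compound concentration reaching ≥90% growth inhibition, from OD readings at 24 and 48 h after blank subtraction, confirmed visually. Inoculum was spores diluted in 17% V8 medium, except Rs, using 1.5 mm mycelial plugs in ¼ PDB; actual compound concentration corrected via OD600.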

Septoria tritici (St) = assay: In vitro pathogen growth inhibition assay, St; settings: Zymoseptoria tritici, 48 h, ≥90% inhibition; 48 hours vs 2% DMSO control; read-out: Compound Concentration (ppm) sufficient for ≥90% inhibition of growth, St
How it was run: as §1

[2] = test system: Fusarium moniliforme (Fm); assay: In vitro pathogen growth inhibition assay, Fm; settings: Fusarium verticillioides; ≥90% inhibition; 48 hours vs 2% DMSO control; read-out: Compound Concentration (ppm) sufficient for ≥90% inhibition of growth, Fm
How it was run: as §1

Rhizoctonia solani (Rs) = assay: In vitro pathogen growth inhibition assay, Rs (mycelial plugs); settings: Rhizoctonia solani, 48 h, ≥90% inhibition; mycelial plugs; 48 hours vs 2% DMSO control; read-out: Compound Concentration (ppm) sufficient for ≥90% inhibition of growth, Rs
How it was run: (§2)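 Spores of Dm, Fv and Pc were diluted in 17% V8 liquid medium; Rs used 1.5 mm mycelial plugs in ¼ PDB. Compounds from 2.5 mg/ml DMSO stocks were combined with inoculum, growth was read by OD600 at 24 and 48 h with blank subtraction, and the reported value is the concentration giving ≥90% inhibition.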

[3] = test system: Phytophthora capsici (Pc); assay: In vitro pathogen growth inhibition assay, Pc; settings: 48 h, ≥90% inhibition, 48 hours vs 2% DMSO control, read-out: Compound Concentration (ppm) sufficient for ≥90% inhibition of growth, Pc
How it was run: as §2

Diplodia maydis (Dm) = assay: In vitro pathogen growth inhibition assay, Dm; settings: Stenocarpella maydis, 48 h, ≥90% inhibition; 48 hours vs 2% DMSO control; read-out: Compound Concentration (ppm) sufficient for ≥90% inhibition of growth, Dm
How it was run: as §2

[4] = test system: Fusarium virguliforme (Fv); assay: In vitro pathogen growth inhibition assay, Fv; settings: ≥90% inhibition, 48 hours vs 2% DMSO control, read-out: Compound Concentration (ppm) sufficient for ≥90% inhibition of growth, Fv
How it was run: as §2

Botrtyis cinerea (Bc) = assay: In vitro pathogen growth inhibition assay, Bc; settings: 48 h, ≥90% inhibition; 48 hours vs 2% DMSO control; read-out: Compound Concentration (ppm) sufficient for ≥90% inhibition of growth, Bc
How it was run: as §1

[5] = test system: Saccharomyces cerevisiae (Sc); assay: Yeast growth inhibition assay; settings: Saccharomyces cerevisiae, ≥75% inhibition, read-out: Compound Concentration (ppm) sufficient for ≥75% inhibition, Sc
Experimental: Both tables list the concentration of each compound that was sufficient to ≥90% inhibition of growth for each of the fungal pathogens listed above. In addition, some of compounds were tested in a yeast growth inhibition assay for Saccharomyces cerevisiae (Sc). Table 2 lists the concentration of the tested compound that was sufficient to ≥75% inhibition of Saccharomyces cerevisiae (Sc).

SMILES	IC90 [1]	IC90 (Septoria tritici (St))	IC90 [2]	IC90 (Rhizoctonia solani (Rs))	IC90 [3]	IC90 (Diplodia maydis (Dm))	IC90 [4]	IC90 (Botrtyis cinerea (Bc))	IC75 [5]
COc1ccc(F)cc1[C@H](Cn1c(=O)n(C(C)(C)C(=O)N2CCOCC2)c(=O)c2c(C)c(-n3cccn3)sc21)OC(C)C [Compound I-151]	50 µg/mL (≈ 81.5 µM)	> 50 µg/mL	2 µg/mL (≈ 3.26 µM)	> 50 µg/mL	> 50 µg/mL	10 µg/mL (≈ 16.3 µM)	2 µg/mL (≈ 3.26 µM)	10 µg/mL (≈ 16.3 µM)	11 µg/mL (≈ 17.9 µM)
COc1ccccc1[C@H](Cn1c(=O)n(C(C)(C)C(=O)N2CCOCC2)c(=O)c2c(C)c(-c3ncco3)sc21)OC1CCOCC1 [Compound I-152]	50 µg/mL (≈ 78.3 µM)	> 50 µg/mL	2 µg/mL (≈ 3.13 µM)	> 50 µg/mL	> 50 µg/mL	50 µg/mL (≈ 78.3 µM)	> 50 µg/mL	10 µg/mL (≈ 15.7 µM)	> 33 µg/mL
COc1ccc(F)cc1[C@H](Cn1c(=O)n(C(C)(C)C(N)=O)c(=O)c2c(C)c(-c3ncco3)sc21)OCC1CCC(=O)CC1 [Compound I-149]	50 µg/mL (≈ 81.6 µM)	> 50 µg/mL	2 µg/mL (≈ 3.26 µM)	> 50 µg/mL	> 50 µg/mL	50 µg/mL (≈ 81.6 µM)	2 µg/mL (≈ 3.26 µM)	10 µg/mL (≈ 16.3 µM)	11 µg/mL (≈ 18 µM)
CCOC(=O)c1sc2c(c1C)c(=O)n(C(C)(C)C(=O)N1CCCCC1)c(=O)n2C[C@H](OC(C)C)c1ccccc1OC [Compound I-006]	0.4 µg/mL (≈ 0.667 µM)	≥ 2 µg/mL	0.08 µg/mL (≈ 0.133 µM)	0.4 µg/mL (≈ 0.667 µM)	> 50 µg/mL	0.4 µg/mL (≈ 0.667 µM)	0.4 µg/mL (≈ 0.667 µM)	0.4 µg/mL (≈ 0.667 µM)	1.2 µg/mL (≈ 2 µM)
